Read-outs that look alike come from different tables or passages of the source.
Key:
[1] = tested on: Phenylquinone writhing in the mouse; test: Analgesic activity - phenylquinone writhing test (Siegmund method); format: in vivo; conditions: for Mean number of writhings: equimolecular doses os (acetylsalicylic acid 100 mg/kg, TF 914 180 mg/kg) 30 min. before i.p. phenylquinone; for N. animals showing writhing / % inhib. vs. contr.: os (acetylsalicylic acid 100 mg/kg, TF 914 180 mg/kg); for % inhib. vs. contr.: writhings
Experimental: The analgesic activity was studied by the quinone writhing test in the mouse according to the method of Siegmund E. et al. (Proc. Soc. Exp. Biol. Med., 1957, 95, 729). TF 914 was orally administered, in comparison with acetylsalicylic acid, in equimolecular doses. The two drugs were administered 30 min. before intraperitoneal injection of phenylquinone.

[2] = tested on: Carrageenin oedema in the rat; test: Antiinflammatory activity - carrageenin oedema test (Winter method); format: in vivo; conditions: for PAW/VOLUME ml/10 - M ± ES 2h / PAW/VOLUME ml/10 - M ± ES 4h / PAW/VOLUME ml/10 - M ± ES 6h / PAW/VOLUME ml/10 - M ± ES 8h / PAW/VOLUME ml/10 - M ± ES 24h / PAW/VOLUME ml/10 - M ± ES Basal: equimolecular doses p.o. (ASA 100 mg/kg, TF 914 180 mg/kg) 30 minutes before carrageenin; for PAW/VOLUME ml/10 - M ± ES Basal: 10 animals; for AREAS Δ % M ± ES: area of the oedema curve; for AREAS Δ % M ± ES / AREAS inhib. vs. contr.: p.o. (ASA 100 mg/kg, TF 914 180 mg/kg); for AREAS inhib. vs. contr.: inhibition of area vs. control
Experimental: Antiinflammatory activity of TF 914 was evaluated by means of the carrageenin oedema test in the rat, according to the method of Winter, Rissly, Ness (Proc. Soc. Exp. Biol. Med., 1962, 111, 544), in comparison with acetylsalicylic acid at equimolecular doses.
The compound under test and acetylsalicylic acid, as a comparison, were administered by the oral route 30 minutes before subplantar injection of carrageenin. […]
The obtained results, which are shown in table 2, evidence the marked antiinflammatory activity of TF 914, said activity being higher than that of acetylsalicylic acid in equimolecular doses, under the experimental conditions used.

gastric mucosa = format: in vivo, rats
Experimental: The action of equimolecular doses of TF 914 and acetylsalicylic acid on gastric mucosa was evaluated by administering the products by the oral route to rats fasted for 18 hours at least.

[3] = tested on: carrageenin induced pleuritis; test: Antiinflammatory activity - carrageenin induced pleuritis test (Vinegar method); format: in vivo, rat; conditions: 5 h; for EXUDATE VOLUME ml: 100 mg/kg p.o. 1 hour before carrageenin; for N. LEUKOCYTES % inhib. vs. contr. / EXUDATE VOLUME % vs.contr. / N. LEUKOCYTES ml: 100 mg/kg p.o.; for EXUDATE VOLUME % vs.contr.: protection on exudate volume; for N. LEUKOCYTES ml: total number of leukocytes in pleuric exudate
Experimental: The antiinflammatory activity was tested by the carrageenin induced pleuritis test in the rat, according to the method of Vinegar R. et al. (Proc. Soc. Exp. Biol. Mod., 1973, 143, 3).
TF 914 and phenylbutazone as a control were administered orally in equiponderal doses, 1 hour before the carrageenin injection in the pleuric cavity.
Five hours later the animals were killed, and volume of the pleuric exudate and total number of leukocytes therein were evaluated.

[4] = Acute toxicity by single administration (LD50, Litchfield and Wilcoxon); conditions: in vivo
Experimental: Toxicity by single administrations of TF 914 was studied in the mouse and the rat, by oral and intraperitoneal route.
LD₅₀ values were calculated according to the method of Litchfield and Wilcoxon (J. Pharm. Exp. Therap., 1949, 96, 99).
The obtained results, which are summarized in table 1, evidenced that TF 914 has no toxicity.

[5] = Pharmacokinetics after oral administration, HPLC; format: in vivo; conditions: rat, equimolecular doses, vs. acetylsalicylic acid and Thiola
Experimental: The pharmakinetics studies on TF 914 were carried out in the rat, in comparison with acetylsalicylic acid and Thiola®, after oral administration of equimolecular doses of the three compounds.
Measurements were performed by HPLC.

[6] = tested on: bronchosecretolytic activity; test: Bronchosecretolytic activity (Mawatari method); format: in vivo, male Wistar rat; conditions: equimolecular doses os (TF 914 360 mg/kg, Thiola 200 mg/kg); 10 animals
Experimental: The bronchosecretolytic activity was evaluated in the male Wistar rat by oral administration of TF 914 ac cording to the method of Mawatari (Mawatari H. Kagoshima Daigaku Igaku-Zasshi- 27, 561, 1976), in comparison with Thiola®, in equimolecular doses.

Structure (SMILES)	Mean number of writhings [1]	N. animals showing writhing [1]	% inhib. vs. contr. [1]	PAW/VOLUME ml/10 - M ± ES 2h [2]	PAW/VOLUME ml/10 - M ± ES 4h [2]	PAW/VOLUME ml/10 - M ± ES 6h [2]	PAW/VOLUME ml/10 - M ± ES 8h [2]	PAW/VOLUME ml/10 - M ± ES 24h [2]	PAW/VOLUME ml/10 - M ± ES Basal [2]	AREAS Δ % M ± ES [2]	AREAS inhib. vs. contr. [2]	EXUDATE VOLUME ml [3]	N. LEUKOCYTES % inhib. vs. contr. [3]	N. LEUKOCYTES ml [3]	% increase of FlNa in comparison with controls [6]	also measured
CC(=O)Oc1ccccc1C(=O)O [ASA, Acetylsalicylic acid, reference compound]	1.4 ± 0.9	3/10	89.06%	58,3 ± 2,5 ml/10	66,0 ± 3,0 ml/10	59,3 ± 1,7 ml/10	52,8 ± 2,6 ml/10	45,3 ± 1,5 ml/10	43,1 ± 1,5 ml/10	161,5 ± 20,9%	37,0					Ulcer size (mm) x ± es (gastric mucosa; equimolecular doses os (ASA 100 mg/kg, TF 914 180 mg/kg), rats fasted at least 18 hours, 6 hours after treatment): 3.6 ± 1.34 mm; gastro-injuring action (in words) (gastric mucosa; examination of the mucosa 6 hours after oral treatment, equimolecular doses): marked gastro-injuring effects
CC(SC1(C)OC(=O)c2ccccc2O1)C(=O)NCC(=O)O (stereo not drawn) [TF 914, 2-methyl-2[1-(carboxy-methyl-amino-carbonyl)ethyl]thio-4-oxo-benzodioxane-1.3]	1.8 ± 1.1	3/10	85.93%	53,3 ± 1,6 ml/10	60,4 ± 2,0 ml/10	61,8 ± 2,7 ml/10	54,5 ± 2,8 ml/10	45,1 ± 1,5 ml/10	42,8 ± 0,7 ml/10	145,4 ± 20,4%	43,3	1,79 ±0,25 ml	19.5%	10,84 ±1,32 ml	35.6%	N. LEUKOCYTES % inhib. vs. contr. ([3]; listed as MR 914): 19,5%; EXUDATE VOLUME % vs.contr. ([3]; 100 mg/kg): 27.2%; EXUDATE VOLUME % vs.contr. ([3]; listed as MR 914, 100 mg/kg): 27,2%; LD50 ([4]; ip, Mouse): > 3000 mg/kg; LD50 ([4]; po, Mouse, os): > 3000 mg/kg; LD50 ([4]; po, Rat, os): > 3000 mg/kg; gastro-injuring action (in words) (gastric mucosa; rat, in vivo, po): substantially has no gastro-injuring action; bioavailability (in words) [5]: better bioavailability; persistence in blood stream (in words) [5]: remain in blood stream for longer periods
CC(S)C(=O)NCC(=O)O (stereo not drawn) [Thiola®, reference compound]															33.4%	
CCCCC1C(=O)N(c2ccccc2)N(c2ccccc2)C1=O [PHENYLBUTAZONE, phenylbutazone, reference compound]												1,75 ±2,25 ml	36,7%	8,52 ±1,27 ml		EXUDATE VOLUME % vs.contr. [3]: 28,9%
